Experiments:
[1] = biological target: c-Met (Homo sapiens, UniProt P08581); test: Ki determination for the inhibition of c-Met, coupled enzyme system; assay type: biochemical; settings: 200 μM ATP, 10 μM polyGluTyr, 80 nM c-Met, 30° C.
How it was run: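 Coupled pyruvate kinase/lactate dehydrogenase NADH assay with 80 nM c-Met, 200 μM ATP, 10 μM polyGluTyr in pH 7.5 HEPES, 1.5% DMSO at 30° C. Compound (0.006–12.5 μM final, 12-point) preincubated 10 min; ATP started reaction, rates read over 10 min; Ki derived from rate versus inhibitor concentration.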

[2] = biological target: T1, FLT-3 (Homo sapiens, UniProt P36888); test: Inhibition of FLT-3, radiometric filter-binding assay; assay type: biochemical; settings: 90 μM ATP, 0.5 mg/mL pE4Y, room temperature
T1 construct: 0.02% BSA and 3 nM FLT-3
T1 sequence (P36888 27-993): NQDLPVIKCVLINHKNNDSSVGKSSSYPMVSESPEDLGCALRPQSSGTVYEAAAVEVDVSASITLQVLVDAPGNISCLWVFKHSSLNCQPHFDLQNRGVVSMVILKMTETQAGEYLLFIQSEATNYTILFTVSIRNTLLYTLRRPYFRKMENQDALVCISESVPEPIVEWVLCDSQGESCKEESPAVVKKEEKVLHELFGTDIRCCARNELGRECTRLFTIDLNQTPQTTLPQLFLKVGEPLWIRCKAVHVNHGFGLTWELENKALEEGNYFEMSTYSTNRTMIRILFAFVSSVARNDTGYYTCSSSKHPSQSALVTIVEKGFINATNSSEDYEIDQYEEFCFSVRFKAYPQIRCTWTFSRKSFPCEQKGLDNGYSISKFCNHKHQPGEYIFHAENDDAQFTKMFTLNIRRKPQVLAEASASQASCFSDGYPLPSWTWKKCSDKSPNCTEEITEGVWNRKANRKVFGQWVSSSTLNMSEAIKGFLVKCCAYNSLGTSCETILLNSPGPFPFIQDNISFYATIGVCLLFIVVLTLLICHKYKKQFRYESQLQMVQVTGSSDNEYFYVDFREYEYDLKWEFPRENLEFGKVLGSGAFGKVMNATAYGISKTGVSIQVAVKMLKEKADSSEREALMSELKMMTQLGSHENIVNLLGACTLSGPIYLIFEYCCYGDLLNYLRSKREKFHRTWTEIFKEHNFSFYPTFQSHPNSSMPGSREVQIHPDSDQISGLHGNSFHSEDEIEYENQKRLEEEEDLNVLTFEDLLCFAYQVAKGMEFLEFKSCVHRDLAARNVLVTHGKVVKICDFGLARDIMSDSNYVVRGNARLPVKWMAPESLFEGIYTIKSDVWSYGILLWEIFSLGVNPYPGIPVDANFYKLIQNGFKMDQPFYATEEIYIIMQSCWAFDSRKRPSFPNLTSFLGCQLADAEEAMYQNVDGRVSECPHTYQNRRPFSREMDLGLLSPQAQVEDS
How it was run: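 Radiometric filter-binding assay of FLT-3 (3 nM in Solution 2; final conc not stated) phosphorylating poly(Glu,Tyr) 4:1 (0.5 mg/mL) with 90 μM ATP plus [γ-33P]ATP, in HEPES pH 7.5, MgCl2, NaCl, DTT, BSA, 2.5% DMSO. 12-point titration, typically 0.01–5 μM, 20 min at room temperature; TCA-stopped, filtered, scintillation-counted; IC50 or Ki fitted.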

Sequence of c-Met (P08581 25-1390): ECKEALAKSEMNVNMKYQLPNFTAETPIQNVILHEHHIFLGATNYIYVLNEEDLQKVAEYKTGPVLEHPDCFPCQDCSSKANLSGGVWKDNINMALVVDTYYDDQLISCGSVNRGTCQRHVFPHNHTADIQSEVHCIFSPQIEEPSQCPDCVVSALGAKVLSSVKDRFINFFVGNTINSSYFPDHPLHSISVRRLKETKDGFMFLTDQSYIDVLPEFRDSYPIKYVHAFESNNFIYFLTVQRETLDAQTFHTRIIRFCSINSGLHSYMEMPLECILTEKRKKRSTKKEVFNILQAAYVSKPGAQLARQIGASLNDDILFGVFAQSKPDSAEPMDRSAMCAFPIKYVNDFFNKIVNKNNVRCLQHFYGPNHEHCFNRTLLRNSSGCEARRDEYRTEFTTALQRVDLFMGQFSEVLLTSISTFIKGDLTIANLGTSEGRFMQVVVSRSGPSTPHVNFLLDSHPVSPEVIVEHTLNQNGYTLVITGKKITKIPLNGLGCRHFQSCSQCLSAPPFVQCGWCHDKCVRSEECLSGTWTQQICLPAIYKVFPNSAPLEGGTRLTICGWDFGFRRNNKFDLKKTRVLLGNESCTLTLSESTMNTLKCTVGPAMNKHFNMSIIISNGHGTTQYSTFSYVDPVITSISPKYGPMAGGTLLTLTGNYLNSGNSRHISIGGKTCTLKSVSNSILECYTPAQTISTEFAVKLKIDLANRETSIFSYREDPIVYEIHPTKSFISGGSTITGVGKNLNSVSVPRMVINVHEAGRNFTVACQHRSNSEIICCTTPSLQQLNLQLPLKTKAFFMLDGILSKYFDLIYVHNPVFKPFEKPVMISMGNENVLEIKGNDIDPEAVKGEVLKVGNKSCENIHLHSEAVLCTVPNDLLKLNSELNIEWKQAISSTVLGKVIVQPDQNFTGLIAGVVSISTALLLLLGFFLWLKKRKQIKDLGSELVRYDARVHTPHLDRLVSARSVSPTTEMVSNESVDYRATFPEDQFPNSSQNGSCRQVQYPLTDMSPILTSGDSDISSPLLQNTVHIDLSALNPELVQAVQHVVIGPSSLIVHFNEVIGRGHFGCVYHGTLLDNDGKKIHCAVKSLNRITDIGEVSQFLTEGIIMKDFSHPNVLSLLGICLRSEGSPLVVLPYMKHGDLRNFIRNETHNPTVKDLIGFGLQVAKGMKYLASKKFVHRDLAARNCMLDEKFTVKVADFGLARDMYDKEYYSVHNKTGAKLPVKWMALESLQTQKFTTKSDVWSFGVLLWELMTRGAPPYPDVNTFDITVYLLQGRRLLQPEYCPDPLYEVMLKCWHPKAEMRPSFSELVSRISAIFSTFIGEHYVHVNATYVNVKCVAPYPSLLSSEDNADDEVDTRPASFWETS

SMILES	Ki [1] [nM]	Ki [2] [nM]
COc1ccnc(-c2cnc3[nH]cc(-c4oncc4-c4cccc(F)c4F)c3c2)c1 [Compound 78, 3-[4-(2,3-Difluoro-phenyl)-isoxazol-5-yl]-5-(4-methoxy-pyridin-2-yl)-1H-pyrrolo[2,3-b]pyridine]	< 200	200 to 1000
CN(C)C(=O)c1ccc(-c2cnc3[nH]cc(-c4oncc4-c4cccc(F)c4F)c3c2)nc1 [Compound 79, 6-{3-[4-(2,3-Difluoro-phenyl)-isoxazol-5-yl]-1H-pyrrolo [2,3-b]pyridin-5-yl}-N,N-dimethyl-nicotinamide]	< 200	< 200
CN(C)c1ccnc(-c2cnc3[nH]cc(-c4oncc4-c4cccc(F)c4F)c3c2)c1 [Compound 80, (2-{3-[4-(2,3-Difluoro-phenyl)-isoxazol-5-yl]-1H-pyrrolo[2,3-b]pyridin-5-yl}-pyridin-4-yl)-dimethyl-amine]	1000 to 12500	1000 to 12500
CN(C)Cc1cc(Cl)nc(-c2cnc3[nH]cc(-c4oncc4-c4cccc(F)c4F)c3c2)c1 [Compound 81, (2-Chloro-6-{3-[4-(2,3-difluoro-phenyl)-isoxazol-5-yl]-1H-pyrrolo[2,3-b]pyridin-5-yl}-pyridin-4-ylmethyl)-dimethyl-amine]	< 200	200 to 1000
CN(C)Cc1ccnc(-c2cnc3[nH]cc(-c4oncc4-c4cccc(F)c4F)c3c2)c1 [Compound 82, (2-{3-[4-(2,3-Difluoro-phenyl)-isoxazol-5-yl]-1H-pyrrolo[2,3-b]pyridin-5-yl}-pyridin-4-ylmethyl)-dimethyl-amine]	< 200	< 200
Nc1ccnc(-c2cnc3[nH]cc(-c4oncc4-c4cccc(F)c4F)c3c2)c1 [Compound 83, 2-{3-[4-(2,3-Difluoro-phenyl)-isoxazol-5-yl]-1H-pyrrolo [2,3-b]pyridin-5-yl}-pyridin-4-ylamine]	< 200	1000 to 12500
CN(C)Cc1ccc(-c2cnc3[nH]cc(-c4oncc4-c4cccc(F)c4F)c3c2)nc1 [Compound 84, (6-{3-[4-(2,3-Difluoro-phenyl)-isoxazol-5-yl]-1H-pyrrolo[2,3-b]pyridin-5-yl}-pyridin-3-ylmethyl)-dimethyl-amine]	< 200	< 200
Fc1cccc(-c2cnoc2-c2c[nH]c3ncc(-c4cncnc4)cc23)c1F [Compound 85, 3-[4-(2,3-Difluoro-phenyl)-isoxazol-5-yl]-5-pyrimidin-5-yl-1H-pyrrolo[2,3-b]pyridine]	< 200	200 to 1000
Nc1cccc(-c2cnc3[nH]cc(-c4oncc4-c4cccc(F)c4F)c3c2)c1 [Compound 86, 3-{3-[4-(2,3-Difluoro-phenyl)-isoxazol-5-yl]-1H-pyrrolo [2,3-b]pyridin-5-yl}-phenylamine]	< 200	< 200
Oc1cccc(-c2cnc3[nH]cc(-c4oncc4-c4cccc(F)c4F)c3c2)c1 [Compound 87, 3-{3-[4-(2,3-Difluoro-phenyl)-isoxazol-5-yl]-1H-pyrrolo [2,3-b]pyridin-5-yl}-phenol]	< 200	< 200
Nc1ccc(-c2cnc3[nH]cc(-c4oncc4-c4cccc(F)c4F)c3c2)cc1 [Compound 90, 4-{3-[4-(2,3-Difluoro-phenyl)-isoxazol-5-yl]-1H-pyrrolo [2,3-b]pyridin-5-yl}-phenylamine]	< 200	< 200
CN(C)Cc1ccc(-c2cnc3[nH]cc(-c4oncc4-c4cccc(F)c4F)c3c2)cc1 [Compound 91, (4-{3-[4-(2,3-Difluoro-phenyl)-isoxazol-5-yl]-1H-pyrrolo[2,3-b]pyridin-5-yl}-benzyl)-dimethyl-amine]	< 200	< 200
Fc1cccc(-c2cnoc2-c2c[nH]c3ncc(-c4ccc(CN5CCOCC5)cc4)cc23)c1F [Compound 92, 3-[4-(2,3-Difluoro-phenyl)-isoxazol-5-yl]-5-(4-morpholin-4-ylmethyl-phenyl)-1H-pyrrolo[2,3-b]pyridine]	< 200	< 200
Fc1cccc(-c2cnoc2-c2c[nH]c3ncc(-c4ccc(CN5CCCC5)cc4)cc23)c1F [Compound 93, 3-[4-(2,3-Difluoro-phenyl)-isoxazol-5-yl]-5-(4-pyrrolidin-1-ylmethyl-phenyl)-1H-pyrrolo[2,3-b]pyridine]	< 200	< 200
CN1CCN(Cc2ccc(-c3cnc4[nH]cc(-c5oncc5-c5cccc(F)c5F)c4c3)cc2)CC1 [Compound 94, 3-[4-(2,3-Difluoro-phenyl)-isoxazol-5-yl]-5-[4-(4-methyl-piperazin-1-ylmethyl)-phenyl]-1H-pyrrolo[2,3-b]pyridine]	< 200	< 200
CC(=O)Nc1ccc(-c2cnc3[nH]cc(-c4oncc4-c4cccc(F)c4F)c3c2)cc1 [Compound 95, N-(4-{3-[4-(2,3-Difluoro-phenyl)-isoxazol-5-yl]-1H-pyrrolo[2,3-b]pyridin-5-yl}-phenyl)-acetamide]	< 200	< 200
COc1cncc(-c2cnc3[nH]cc(-c4oncc4-c4cccc(F)c4F)c3c2)c1 [Compound 96, 3-[4-(2,3-Difluoro-phenyl)-isoxazol-5-yl]-5-(5-methoxy-pyridin-3-yl)-1H-pyrrolo[2,3-b]pyridine]	< 200	200 to 1000
CS(=O)(=O)Nc1ccc(-c2cnc3[nH]cc(-c4oncc4-c4cccc(F)c4F)c3c2)cc1 [Compound 98, N-(4-{3-[4-(2,3-Difluoro-phenyl)-isoxazol-5-yl]-1H-pyrrolo[2,3-b]pyridin-5-yl}-phenyl)-methane sulfonamide]	< 200	< 200
Clc1cccc(-c2cnoc2-c2c[nH]c3ncc(-c4cccnc4)cc23)c1Cl [Compound 99, 3-[4-(2,3-Dichloro-phenyl)-isoxazol-5-yl]-5-pyridin-3-yl-1H-pyrrolo[2,3-b]pyridine]	< 200	< 200
CNc1ccc2c(-c3oncc3-c3cccc(F)c3F)c[nH]c2n1 [Compound 102, {3-[4-(2,3-Difluoro-phenyl)-isoxazol-5-yl]-1H-pyrrolo[2,3-b]pyridin-6-yl}-methyl-amine]	< 200	1000 to 12500
COC(=O)c1cnc2[nH]cc(-c3oncc3-c3cccc(F)c3F)c2c1 [Compound 105, 3-[4-(2,3-Difluoro-phenyl)-isoxazol-5-yl]-1H-pyrrolo[2,3-b]pyridine-5-carboxylic acid methyl ester]	< 200	< 200
CN(C)c1ccc(-c2cnc3[nH]cc(-c4nncn4-c4cccc(F)c4F)c3c2)cc1 [Compound 106, (4-{3-[4-(2,3-Difluoro-phenyl)-4H-[1,2,4]triazol-3-yl]-1H-pyrrolo[2,3-b]pyridin-5-yl}-phenyl)-dimethyl-amine]	< 200	200 to 1000
Fc1cccc(-n2cnnc2-c2c[nH]c3ncc(-c4ccc(CN5CCOCC5)cc4)cc23)c1F [Compound 109, 3-[4-(2,3-Difluoro-phenyl)-4H-[1,2,4]triazol-3-yl]-5-(4-morpholin-4-ylmethyl-phenyl)-1H-pyrrolo[2,3-b]pyridine]	< 200	200 to 1000
CN1CCN(c2ccc(-c3cnc4[nH]cc(-c5nncn5-c5cccc(F)c5F)c4c3)cc2)CC1 [Compound 110, 3-[4-(2,3-Difluoro-phenyl)-4H-[1,2,4]triazol-3-yl]-5-[4-(4-methyl-piperazin-1-yl)-phenyl]-1H-pyrrolo[2,3-b]pyridine]	< 200	200 to 1000
